Results: patent US9809626B2, “Antibacterial agents: salinamide derivatives” (priority 2012, dated 2017)
≈ marks a conversion by molar mass, not a printed value. Where two headings read alike, the source gives them in different places. Numbered stars: 1 amine (or outer) side, 2 acyl side, 3 side chain; on linkers, the order of the positions; unused ones are H or OH. Bridge positions count the residues as written; N and C are the ends. Square brackets hold non-standard residues; d marks the D form. Peptide text beside a SMILES is read from it. * marks the point of attachment. X7 = C[C@@H](Oc1ccc([C@H](N[*:1])C(=O)[*:2])cc1)[C@](O)(/C=C/C(=O)[*:3])CNCCCCCCNC(=O)OC(C)(C)C; X6 = C[C@@H](Oc1ccc([C@H](N[*:1])C(=O)[*:2])cc1)[C@](O)(/C=C/C(=O)[*:3])CNCCCNC(=O)OC(C)(C)C; X4 = CCCCOC[C@@](O)(/C=C/C(=O)[*:3])[C@@H](C)Oc1ccc([C@H](N[*:1])C(=O)[*:2])cc1; X2 = C[C@@H](Oc1ccc([C@H](N[*:1])C(=O)[*:2])cc1)[C@](O)(/C=C/C(=O)[*:3])CBr; X5 = C[C@@H](Oc1ccc([C@H](N[*:1])C(=O)[*:2])cc1)[C@](O)(/C=C/C(=O)[*:3])CO; Pentanoyl(2R-Me,3R-OH,4-Me) = CC(C)[C@@H](O)[C@@H](C)C(=O)*; d(aIle) = CC[C@H](C)[C@@H](N)C(=O)O; d(aThr) = C[C@@H](O)[C@@H](N)C(=O)O; NMeF = CN[C@@H](Cc1ccccc1)C(=O)O

Assays:
[1] = test system: Sal-resistant mutants; conditions: Ebright et al., WO/2012/129173; cited from earlier work
[2] = test system: Vero E6 cells (ATCC CRL1586); test: Cytotoxicity to mammalian cells in culture (CellTiter96 assay); format: cell-based
Description: MICs for mammalian cells (Vero E6) in culture were quantified using CellTiter96 assay (Promega. Inc.; procedures as specified by the manufacturer).

[3] = biological target: T1, Staphylococcus aureus RNAP (Staphylococcus aureus, UniProt P47768+Q2G0N5); test: Radiochemical RNAP assay, Staphylococcus aureus RNAP; format: biochemical
T1 construct: made in house
Method: (§1) Radiochemical RNAP assays with Escherichia coli RNAP and Staphylococcus aureus RNAP were performed as follows: Reaction mixtures contained (10 μl): 0-100 μM test compound, bacterial RNAP holoenzyme [75 nM Escherichia coli RNAP holoenzyme (prepared as in Mukhopadhyay et al., Meths. Enzymol. 371:144-159, 2003) or 75 nM Staphylococcus aureus RNAP core enzyme and 300 nM Staphylococcus aureus σ^A (prepared as in Srivastava et al., Curr. Opin. Microbiol. 14:532-543, 2011)], 20 nM DNA fragment N25-lacUV5-14 [positions −100 to −1 of the bacteriophage T5 N25 promoter followed by positions +1 to +29 of the lacUV5(+10A; +15C) promoter; prepared by PCR amplification of a synthetic nontemplate-strand oligodeoxyribonucleotide], 0.5 mM ApA, 100 μM □[α^32P]UTP (0.2 Bq/fmol), 100 μM ATP, and 100 μM GTP in TB (50 mM Tris-HCl, pH 7.9, 100 mM KCl, 10 mM MgCl2, 1 mM DTT, 100 μg/ml bovine serum albumin, and 5% glycerol). […] Products were applied to 7 M urea 15% polyacrylamide (19:1 acrylamide:bisacrylamide) slab gels (Bio-Rad), electrophoresed in TBE (90 mM Tris-borate, pH 8.0, and 2 mM EDTA), and analyzed by storage-phosphor scanning (Typhoon; GE Healthcare, Inc.).
(§2) Half-maximal inhibitory concentrations (IC50s) were calculated by non-linear regression in SigmaPlot (SPSS, Inc.).

[4] = biological target: Escherichia coli RNAP σ70 holoenzyme (Escherichia coli, UniProt P0A8T7+P0A8V2); test: Fluorescence-detected RNAP assay, Escherichia coli RNAP; format: biochemical; conditions: refers to Table 1
Chain of Escherichia coli RNAP σ70 holoenzyme (P0A8T7 whole entry, the tested form may be a part): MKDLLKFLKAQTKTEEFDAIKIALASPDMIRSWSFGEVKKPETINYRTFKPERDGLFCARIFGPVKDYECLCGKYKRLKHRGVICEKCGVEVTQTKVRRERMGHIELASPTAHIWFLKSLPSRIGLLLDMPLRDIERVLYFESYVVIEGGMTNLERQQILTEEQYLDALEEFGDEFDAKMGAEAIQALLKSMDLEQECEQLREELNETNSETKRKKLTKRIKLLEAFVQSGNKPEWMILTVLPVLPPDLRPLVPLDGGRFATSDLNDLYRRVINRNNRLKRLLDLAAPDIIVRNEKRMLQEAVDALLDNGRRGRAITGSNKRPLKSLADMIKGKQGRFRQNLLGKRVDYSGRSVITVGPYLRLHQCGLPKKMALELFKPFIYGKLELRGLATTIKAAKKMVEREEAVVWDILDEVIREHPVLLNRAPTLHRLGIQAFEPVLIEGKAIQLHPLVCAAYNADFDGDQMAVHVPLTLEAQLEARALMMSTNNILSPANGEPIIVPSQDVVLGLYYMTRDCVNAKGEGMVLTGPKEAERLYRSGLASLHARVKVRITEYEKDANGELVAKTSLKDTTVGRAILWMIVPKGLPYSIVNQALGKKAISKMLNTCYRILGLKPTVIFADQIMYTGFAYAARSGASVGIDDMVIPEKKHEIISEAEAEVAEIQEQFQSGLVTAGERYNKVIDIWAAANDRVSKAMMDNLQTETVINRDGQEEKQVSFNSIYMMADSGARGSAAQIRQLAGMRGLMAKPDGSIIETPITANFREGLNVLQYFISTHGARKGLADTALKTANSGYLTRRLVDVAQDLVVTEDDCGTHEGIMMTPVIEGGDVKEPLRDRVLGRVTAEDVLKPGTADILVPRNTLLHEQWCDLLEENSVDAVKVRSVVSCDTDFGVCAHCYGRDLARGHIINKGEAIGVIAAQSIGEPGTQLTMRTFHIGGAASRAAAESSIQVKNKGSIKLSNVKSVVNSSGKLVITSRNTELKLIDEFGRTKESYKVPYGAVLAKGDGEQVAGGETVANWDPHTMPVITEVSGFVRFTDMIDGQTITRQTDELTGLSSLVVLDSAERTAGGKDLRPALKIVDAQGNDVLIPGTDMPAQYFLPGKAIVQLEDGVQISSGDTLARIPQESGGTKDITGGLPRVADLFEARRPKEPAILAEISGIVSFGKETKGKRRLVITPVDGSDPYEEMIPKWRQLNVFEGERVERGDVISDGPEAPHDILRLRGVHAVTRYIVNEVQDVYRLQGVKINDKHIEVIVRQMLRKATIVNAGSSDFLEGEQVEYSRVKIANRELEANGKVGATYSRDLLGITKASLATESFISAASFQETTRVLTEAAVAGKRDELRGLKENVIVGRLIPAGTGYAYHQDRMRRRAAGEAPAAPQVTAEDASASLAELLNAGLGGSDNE
Chain of Escherichia coli RNAP σ70 holoenzyme (P0A8V2 whole entry, the tested form may be a part): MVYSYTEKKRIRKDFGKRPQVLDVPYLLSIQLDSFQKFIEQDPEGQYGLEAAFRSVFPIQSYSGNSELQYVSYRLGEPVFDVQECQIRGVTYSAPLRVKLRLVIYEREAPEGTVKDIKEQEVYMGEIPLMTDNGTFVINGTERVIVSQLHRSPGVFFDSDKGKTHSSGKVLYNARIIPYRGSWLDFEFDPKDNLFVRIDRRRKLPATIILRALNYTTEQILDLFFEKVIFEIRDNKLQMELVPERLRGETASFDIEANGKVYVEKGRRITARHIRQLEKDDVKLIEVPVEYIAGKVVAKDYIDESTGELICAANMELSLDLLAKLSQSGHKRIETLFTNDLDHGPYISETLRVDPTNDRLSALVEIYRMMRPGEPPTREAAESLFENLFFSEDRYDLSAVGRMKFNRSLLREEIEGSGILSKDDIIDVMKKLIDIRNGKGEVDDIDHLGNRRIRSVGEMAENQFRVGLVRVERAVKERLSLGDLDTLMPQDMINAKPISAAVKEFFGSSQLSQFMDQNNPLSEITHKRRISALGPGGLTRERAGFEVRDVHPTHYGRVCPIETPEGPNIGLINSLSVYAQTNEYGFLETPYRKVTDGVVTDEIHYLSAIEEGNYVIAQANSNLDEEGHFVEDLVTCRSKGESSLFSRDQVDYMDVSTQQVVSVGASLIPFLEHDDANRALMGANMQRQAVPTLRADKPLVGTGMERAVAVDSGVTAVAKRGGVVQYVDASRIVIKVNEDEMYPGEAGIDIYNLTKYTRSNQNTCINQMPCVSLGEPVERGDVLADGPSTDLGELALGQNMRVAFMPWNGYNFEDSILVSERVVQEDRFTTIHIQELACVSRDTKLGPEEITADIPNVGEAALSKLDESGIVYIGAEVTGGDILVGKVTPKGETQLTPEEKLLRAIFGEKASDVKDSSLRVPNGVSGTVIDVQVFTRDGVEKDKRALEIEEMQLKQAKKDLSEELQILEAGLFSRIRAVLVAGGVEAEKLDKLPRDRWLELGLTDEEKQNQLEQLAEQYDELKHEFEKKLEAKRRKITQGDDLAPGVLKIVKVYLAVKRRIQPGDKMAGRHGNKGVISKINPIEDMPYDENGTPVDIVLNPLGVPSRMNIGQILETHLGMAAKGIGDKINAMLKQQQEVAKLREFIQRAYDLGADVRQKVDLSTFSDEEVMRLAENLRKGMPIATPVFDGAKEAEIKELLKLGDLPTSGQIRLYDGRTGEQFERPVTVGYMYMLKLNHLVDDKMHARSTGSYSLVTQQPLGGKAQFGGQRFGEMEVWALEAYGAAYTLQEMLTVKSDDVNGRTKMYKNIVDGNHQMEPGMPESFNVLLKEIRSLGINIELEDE
Chain of Escherichia coli RNAP σ70 holoenzyme (P0A7Z4 whole entry, further chain, the tested form may be a part): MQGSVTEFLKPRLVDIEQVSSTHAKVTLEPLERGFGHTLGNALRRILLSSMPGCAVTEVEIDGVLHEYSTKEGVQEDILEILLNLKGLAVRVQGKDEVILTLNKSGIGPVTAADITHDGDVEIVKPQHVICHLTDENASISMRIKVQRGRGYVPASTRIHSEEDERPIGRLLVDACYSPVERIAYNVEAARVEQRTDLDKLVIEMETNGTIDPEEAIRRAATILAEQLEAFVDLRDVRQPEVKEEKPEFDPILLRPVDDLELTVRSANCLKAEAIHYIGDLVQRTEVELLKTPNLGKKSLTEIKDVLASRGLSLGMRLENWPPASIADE
Chain of Escherichia coli RNAP σ70 holoenzyme (P0A800 whole entry, further chain, the tested form may be a part): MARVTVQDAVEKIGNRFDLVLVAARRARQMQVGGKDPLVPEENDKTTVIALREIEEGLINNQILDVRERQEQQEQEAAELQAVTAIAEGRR
Chain of Escherichia coli RNAP σ70 holoenzyme (P00579 whole entry, further chain, the tested form may be a part): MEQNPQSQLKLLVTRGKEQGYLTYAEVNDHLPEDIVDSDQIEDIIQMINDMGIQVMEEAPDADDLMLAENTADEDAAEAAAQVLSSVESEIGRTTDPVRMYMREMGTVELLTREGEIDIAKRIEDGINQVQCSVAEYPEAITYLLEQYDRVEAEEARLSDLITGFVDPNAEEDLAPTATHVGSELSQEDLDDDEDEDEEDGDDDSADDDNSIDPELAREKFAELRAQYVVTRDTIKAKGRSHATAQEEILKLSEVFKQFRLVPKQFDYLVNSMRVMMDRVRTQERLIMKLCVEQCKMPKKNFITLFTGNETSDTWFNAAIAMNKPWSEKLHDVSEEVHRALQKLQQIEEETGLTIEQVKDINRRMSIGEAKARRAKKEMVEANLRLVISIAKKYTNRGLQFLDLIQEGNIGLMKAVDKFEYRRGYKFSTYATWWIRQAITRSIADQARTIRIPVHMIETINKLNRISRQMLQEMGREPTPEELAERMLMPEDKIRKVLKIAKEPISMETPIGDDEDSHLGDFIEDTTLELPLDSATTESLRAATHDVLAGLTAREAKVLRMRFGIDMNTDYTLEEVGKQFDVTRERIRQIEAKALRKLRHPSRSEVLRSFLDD
Method: Fluorescence-detected RNAP assays with Escherichia coli RNAP were performed by a modification of the procedure of Kuhlman et al., Anal. Biochem. 324:183-190, 2004]. Reaction mixtures contained (20 μl): 0-100 nM test compound, 75 nM Escherichia coli RNAP σ^70 holoenzyme, 20 nM 384 bp DNA fragment containing the bacteriophage T4 N25 promoter, 100 μM ATP, 100 μM GTP, 100 μM UTP, 100 μM CTP, 50 mM Tris-HCl, pH 8.0, 100 mM KCl, 10 mM MgCl2, 1 mM DTT, 10 μg/ml bovine serum albumin, and 5.5% glycerol. Reaction components other than DNA and NTPs were pre-incubated for 10 min at 37° C. Reactions were carried out by addition of DNA and incubation for 5 min at 37° C., followed by addition of NTPs and incubation for 60 min at 37° C. DNA was removed by addition of 1 μl 5 mM CaCl2 and 2 U DNasel (Ambion, Inc.), followed by incubation for 90 min at 37° C. RNA was quantified by addition of 100 μl RiboGreen RNA Quantitation Reagent (Invitrogen, Inc.; 1:500 dilution in Tris-HCl, pH 8.0, 1 mM EDTA), followed by incubation for 10 min at 25° C., followed by measurement of fluorescence intensity [excitation wavelength=485 nm and emission wavelength=535 nm; QuantaMaster QM1 spectrofluorometer (PTI, Inc.)].
as §2

[5] = test system: human RNAP I, II, and III; test: Radiochemical assay with human RNAP I, II, and III (HeLaScribe Nuclear Extract); format: biochemical
Method: Radiochemical assays with human RNAP I, II, and III were performed essentially as described [Sawadogo and Roeder, Cell 43:165-75, 1985]. Reaction mixtures contained (20 μl): 0-100 μM test compound, 8 U HeLaScribe Nuclear Extract (Promega, Inc.), 1 μg human placental DNA (Sigma-Aldrich), 400 μM ATP, 400 μM [α^32P]UTP (0.11 Bq/fmol), 400 μM CTP, 400 μM GTP, 50 mM Tris-HCl, pH 8.0, 7 mM HEPES-NaOH, 70 mM (NH4)2SO4, 50 mM KCl, 12 mM MgCl2, 5 mM DTT, 0.1 mM EDTA, 0.08 mM phenylmethylsulfonyl fluoride, and 16% glycerol. Reaction components other than DNA and NTPs were pre-incubated 10 min at 30° C., DNA was added and reaction mixtures were incubated 15 min at 30° C., NTPs were added and reaction mixtures were incubated 60 min at 30° C. Reaction mixtures were spotted on DE81 filter discs (Whatman, Inc.; pre-wetted with water) and incubated 1 min at room temperature. Filters were washed with 3×3 ml Na2HPO4, 2×3 ml water, and 3 ml ethanol, using a filter manifold (Hoefer, Inc.). Filters were placed in scintillation vials containing 10 ml Scintiverse BD Cocktail (Thermo Fisher, Inc.), and radioactivity was quantified by scintillation counting (LS6500; Beckman-Coulter, Inc.).
as §2

[6] = biological target: T2, Escherichia coli RNAP holoenzyme (Escherichia coli, UniProt P0A8T7+P0A8V2); test: Radiochemical RNAP assay, Escherichia coli RNAP; format: biochemical
T2 construct: made in house
Method: as §1, §2

[7] = test system: Escherichia coli D21f2tolC; test: Antibacterial activity, broth microdilution; format: cell-based; conditions: for MIC50: Escherichia coli, D21F2TOLC, read-out: MIC50 Escherichia coli D21f2tolC
Description: (§3) Antibacterial activity was quantified using broth microdilution [Clinical and Laboratory Standards Institute (CLSI/NCCLS), Methods for Dilution Antimicrobial Susceptibility Tests for Bacteria That Grow Aerobically; Approved Standard, Eighth Edition. CLIS Document M07-A8 (CLIS, Wayne Pa.), 2009]. Assays with Enterobacter cloacae ATCC13047, Pseudomonas aeruginosa ATCC10145, and Escherichia coli D21f2to1C, employed a starting cell density of 2-5×10^5 cfu/ml, Mueller Hinton II cation adjusted broth (BD Biosciences, Inc.), and an air atmosphere. Assays with Haemophilus influenzae ATCC49247 and Neisseria gonorrhoeae ATCC19424 employed a starting cell density of 2-5×10^5 cfu/ml, Haemophilus Test Medium broth (Barry et al., 1993) and a 5% CO2/95% air atmosphere. MIC50 was defined as the minimal concentration resulting in ≧50% inhibition of bacterial growth.

[8] = test system: Neisseria gonorrhoeae ATCC19424; test: Antibacterial activity, broth microdilution; format: cell-based; conditions: Neisseria gonorrhoeae, ATCC19424; minimal concentration resulting in ≧50% inhibition of bacterial growth
Description: as §3

[9] = test system: Enterobacter cloacae ATCC13047; test: Antibacterial activity, broth microdilution; format: cell-based; conditions: Enterobacter cloacae, ATCC13047; minimal concentration resulting in ≧50% inhibition of bacterial growth; read-out: MIC50 Enterobacter cloacae ATCC 13047
Description: as §3

[10] = test system: Haemophilus influenzae ATCC49247; test: Antibacterial activity, broth microdilution; format: cell-based; conditions: Haemophilus influenzae, ATCC49247; minimal concentration resulting in ≧50% inhibition of bacterial growth
Description: as §3

[11] = test system: Pseudomonas aeruginosa ATCC10145; test: Antibacterial activity, broth microdilution; format: cell-based; conditions: Pseudomonas aeruginosa, ATCC10145; minimal concentration resulting in ≧50% inhibition of bacterial growth
Description: as §3

[12] = test system: Sal-resistant mutants; test: Cross-resistance of Sal-resistant mutants to other RNAP inhibitors; format: cell-based; conditions: disclosed herein

Molecule	MIC50 [7]	MIC50 [9]	cross-resistance of Sal-resistant mutants with the compound [12]	also measured
ONC(=Nc1ccccc1)c1cccc(C(F)(F)F)c1 [CBR703]	–	–	–	cross-resistance of Sal-resistant mutants to the compound [1]: not cross-resistant
CC[C@H](C)[C@H]1NC(=O)[C@@H](NC(=O)[C@H](C)[C@H](O)C(C)C)[C@@H](C)OC(=O)[C@@H]2COC(=O)CNC(=O)/C=C/[C@](O)(CBr)[C@@H](C)Oc3ccc(cc3)[C@H](NC1=O)C(=O)N(C)[C@@H](Cc1ccccc1)C(=O)N[C@H]([C@@H](C)O)C(=O)N2 [Sal-Br (3), Sal-Br] ({Pentanoyl(2R-Me,3R-OH,4-Me)}-T[d(aIle)][X2][NMeF][d(aThr)]S; ester 1-C; linker 3-6 via G)	0.049 µg/mL (≈ 0.0445 µM)	1.56 µg/mL (≈ 1.42 µM)	–	MIC50 Vero E6 ATCC CRL1586 ([2]; Table 3): >100 µg/mL; MIC Vero E6 cells ([2]; growth of mammalian cells in culture): > 50 µg/mL; IC50 [3]: 540 ± 40 nM; RNAP-inhibitory activity [4]: essentially full; IC50 ([5]; radiochemical assay, read-out: IC50 human RNAP I, II, and III): > 100000 nM; IC50 ([5]; read-out: IC50 human RNAP I/II/III): > 100000 nM; IC50 [6]: 780 ± 50 nM; antibacterial activity ([7]; refers to Table 2 (E. coli D21f2tolC and Enterobacter cloacae)): essentially full; MIC50 [8]: 1.56 µg/mL (≈ 1.42 µM); MIC50 [10]: 6.25 µg/mL (≈ 5.68 µM); MIC50 [11]: 50 µg/mL (≈ 45.4 µM)
CC[C@H](C)[C@H]1NC(=O)[C@@H](NC(=O)[C@H](C)[C@H](O)C(C)C)[C@@H](C)OC(=O)[C@@H]2COC(=O)CNC(=O)/C=C/[C@](O)(CNCCCNC(=O)OC(C)(C)C)[C@@H](C)Oc3ccc(cc3)[C@H](NC1=O)C(=O)N(C)[C@@H](Cc1ccccc1)C(=O)N[C@H]([C@@H](C)O)C(=O)N2 [Sal-NH(CH2)3NHBoc (7), Sal-NH(CH2)3NHBoc] ({Pentanoyl(2R-Me,3R-OH,4-Me)}-T[d(aIle)][X6][NMeF][d(aThr)]S; ester 1-C; linker 3-6 via G)	1.56 µg/mL (≈ 1.31 µM)	100 µg/mL (≈ 83.7 µM)	–	–
CC[C@H](C)[C@H]1NC(=O)[C@@H](NC(=O)[C@H](C)[C@H](O)C(C)C)[C@@H](C)OC(=O)[C@@H]2COC(=O)CNC(=O)/C=C/[C@](O)(CNCCCCCCNC(=O)OC(C)(C)C)[C@@H](C)Oc3ccc(cc3)[C@H](NC1=O)C(=O)N(C)[C@@H](Cc1ccccc1)C(=O)N[C@H]([C@@H](C)O)C(=O)N2 [Sal-NH(CH2)6NHBoc (9), Sal-NH(CH2)6NHBoc] ({Pentanoyl(2R-Me,3R-OH,4-Me)}-T[d(aIle)][X7][NMeF][d(aThr)]S; ester 1-C; linker 3-6 via G)	0.78 µg/mL (≈ 0.631 µM)	25 µg/mL (≈ 20.2 µM)	–	–
CCCCOC[C@@]1(O)/C=C/C(=O)NCC(=O)OC[C@@H]2NC(=O)[C@@H]([C@@H](C)O)NC(=O)[C@H](Cc3ccccc3)N(C)C(=O)[C@@H](NC(=O)[C@@H]([C@@H](C)CC)NC(=O)[C@@H](NC(=O)[C@H](C)[C@H](O)C(C)C)[C@@H](C)OC2=O)c2ccc(cc2)O[C@@H]1C [Sal-OBu A (5A), Sal-OBu A] ({Pentanoyl(2R-Me,3R-OH,4-Me)}-T[d(aIle)][X4][NMeF][d(aThr)]S; ester 1-C; linker 3-6 via G)	1.56 µg/mL (≈ 1.43 µM)	12.5 µg/mL (≈ 11.4 µM)	–	–
CC[C@H](C)[C@H]1NC(=O)[C@@H](NC(=O)[C@H](C)[C@H](O)C(C)C)[C@@H](C)OC(=O)[C@@H]2COC(=O)CNC(=O)/C=C/[C@](O)(CO)[C@@H](C)Oc3ccc(cc3)[C@H](NC1=O)C(=O)N(C)[C@@H](Cc1ccccc1)C(=O)N[C@H]([C@@H](C)O)C(=O)N2 [Sal-OH (4), Sal-OH] ({Pentanoyl(2R-Me,3R-OH,4-Me)}-T[d(aIle)][X5][NMeF][d(aThr)]S; ester 1-C; linker 3-6 via G)	0.78 µg/mL (≈ 0.751 µM)	25 µg/mL (≈ 24.1 µM)	–	–
CNC(=O)[C@@H](C)[C@H]1C(=O)/C(=C(O)/C=C/C(C)=C/[C@@H](C)[C@H]2O[C@@]3(C)O[C@H](C=C[C@@]34CO4)[C@@H]2C)C(=O)N1[C@@H]1CC[C@H](O)[C@H](C)O1 [streptolydigin]	–	–	do not exhibit cross-resistance	–
lipiarmycin	–	–	do not exhibit cross-resistance	–
myxopyronin	–	–	do not exhibit cross-resistance	–
